Experimental data from PubChem BioAssay (NCI).
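Compound exposure: 48 hours, 5 concentrations, 96-well plates. GI50 is the concentration that inhibits growth by half. TGI: total growth inhibition.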

Key:
Experiment in all cases: NCI tumour cell line growth inhibition, 48 h
M14 melanoma = tested on: M14 melanoma
XF 498 CNS = tested on: XF 498 CNS
HCT-116 colon = tested on: HCT-116 colon
SR leukemia = tested on: SR leukemia
DLD-1 colon = tested on: DLD-1 colon
HCC-2998 colon = tested on: HCC-2998 colon
HOP-18 NSCLC = tested on: HOP-18 NSCLC
HOP-92 NSCLC = tested on: HOP-92 NSCLC
HS 578T breast = tested on: HS 578T breast
NCI-H522 lung = tested on: NCI-H522 lung
MDA-MB-231 breast = tested on: MDA-MB-231 breast
SNB-78 CNS = tested on: SNB-78 CNS
M19-MEL melanoma = tested on: M19-MEL melanoma
P388 leukemia = tested on: P388 leukemia
SN12K1 renal = tested on: SN12K1 renal

CC1CC2=C(S(=O)(=O)c3ccccc3)CC(S(=O)(=O)c3ccccc3)(S(=O)(=O)c3ccccc3)CC21 (centres undefined)
TGI (M14 melanoma): > 100 µM | TGI (XF 498 CNS): > 100 µM | TGI (HCT-116 colon): > 100 µM | TGI (SR leukemia): > 100 µM | TGI (DLD-1 colon): > 100 µM | TGI (HCC-2998 colon): > 100 µM | TGI (HOP-18 NSCLC): > 100 µM

CCOC(=O)Cn1c(=O)ccn(COCCO)c1=O
TGI (M14 melanoma): > 100 µM | TGI (HOP-92 NSCLC): > 100 µM | TGI (HS 578T breast): > 100 µM | TGI (HCC-2998 colon): > 100 µM | TGI (NCI-H522 lung): > 100 µM | TGI (MDA-MB-231 breast): > 100 µM

Clc1ccc(C[P+](c2ccccc2)(c2ccccc2)c2ccccc2)c(Cl)c1
TGI (M14 melanoma): 14.3 µM | TGI (HOP-92 NSCLC): 5.76 µM | TGI (XF 498 CNS): 4.4 µM | TGI (HCT-116 colon): 10.3 µM | TGI (SNB-78 CNS): 11 µM | TGI (M19-MEL melanoma): 11.5 µM | TGI (SR leukemia): 8.13 µM | TGI (HCC-2998 colon): 15.1 µM | TGI (NCI-H522 lung): 7.18 µM

C[C@@H]1Nc2cc(NC(=O)OCCF)nc(N)c2N=C1c1ccccc1
TGI (HOP-92 NSCLC): > 100 µM | TGI (HCT-116 colon): > 100 µM | TGI (NCI-H522 lung): 0.509 µM

CCOC(=O)CNC(=O)N(CC)C12CC3CC(CC(C3)C1)C2
TGI (P388 leukemia): 260 µM | TGI (HOP-92 NSCLC): 222 µM | TGI (XF 498 CNS): 342 µM | TGI (HCT-116 colon): 297 µM | TGI (SNB-78 CNS): 474 µM | TGI (M19-MEL melanoma): 380 µM | TGI (SN12K1 renal): 181 µM | TGI (DLD-1 colon): 44.9 µM | TGI (HCC-2998 colon): 402 µM | TGI (HOP-18 NSCLC): 536 µM | TGI (NCI-H522 lung): 323 µM

CCOC(=O)c1ccc(N[C@@H]2c3cc4c(cc3C(c3cc(OC)c(O)c(OC)c3)[C@H]3C(=O)OCC32)OCO4)cc1O (some centres undefined)
TGI (P388 leukemia): 0.902 µM | TGI (HOP-92 NSCLC): 7.38 µM | TGI (XF 498 CNS): 16.9 µM | TGI (HCT-116 colon): 8.26 µM | TGI (SNB-78 CNS): > 100 µM | TGI (M19-MEL melanoma): > 55.1 µM | TGI (SN12K1 renal): 11.3 µM | TGI (DLD-1 colon): 4.58 µM | TGI (HCC-2998 colon): 3.97 µM | TGI (HOP-18 NSCLC): > 54.4 µM | TGI (NCI-H522 lung): 2.07 µM

COc1cc2oc(-c3ccc(O)cc3)c(OC)c(=O)c2c(O)c1OC
GI50 (M14 melanoma): 47.2 µM | TGI (M14 melanoma): > 100 µM | GI50 (HOP-92 NSCLC): 43.9 µM | TGI (HOP-92 NSCLC): > 100 µM | GI50 (HCT-116 colon): 34.8 µM | TGI (HCT-116 colon): > 100 µM | GI50 (HCC-2998 colon): 18.8 µM | TGI (HCC-2998 colon): 72.8 µM | GI50 (NCI-H522 lung): 45.2 µM | TGI (NCI-H522 lung): > 100 µM

CCOP(=O)(OCC)C(c1ccc(F)cc1)N(C(=O)NC(F)(F)F)c1cccc(C(F)(F)F)c1 (centres undefined)
TGI (M14 melanoma): > 100 µM | TGI (HOP-92 NSCLC): 98.6 µM | TGI (HCT-116 colon): > 100 µM | TGI (SR leukemia): > 100 µM | TGI (HS 578T breast): > 100 µM | TGI (HCC-2998 colon): > 100 µM | TGI (NCI-H522 lung): > 100 µM | TGI (MDA-MB-231 breast): > 100 µM

CCC(C)NC1=NCC(C)S1 (centres undefined)
TGI (M14 melanoma): > 100 µM | TGI (HOP-92 NSCLC): > 100 µM | TGI (HCT-116 colon): > 100 µM | TGI (SR leukemia): > 100 µM | TGI (HS 578T breast): > 100 µM | TGI (HCC-2998 colon): > 100 µM | TGI (NCI-H522 lung): > 100 µM | TGI (MDA-MB-231 breast): > 100 µM

COCCCNc1nc(N)c(C#N)c(C#N)c1C#N
TGI (M14 melanoma): > 10 µM | TGI (HCT-116 colon): > 10 µM | TGI (SR leukemia): > 10 µM | TGI (HS 578T breast): > 10 µM | TGI (HCC-2998 colon): > 10 µM | TGI (NCI-H522 lung): > 10 µM | TGI (MDA-MB-231 breast): > 10 µM

COc1ccc(S(=O)(=O)c2ccccc2[N+](=O)[O-])cc1
TGI (M14 melanoma): > 100 µM | TGI (HOP-92 NSCLC): > 100 µM | TGI (HCT-116 colon): > 100 µM | TGI (M19-MEL melanoma): > 100 µM | TGI (SR leukemia): > 100 µM | TGI (DLD-1 colon): > 100 µM | TGI (HCC-2998 colon): > 100 µM | TGI (HOP-18 NSCLC): > 100 µM

CC1CCCCNC1=S (centres undefined)
TGI (M14 melanoma): > 10 µM | TGI (HOP-92 NSCLC): > 10 µM | TGI (SR leukemia): > 10 µM | TGI (HS 578T breast): > 10 µM | TGI (MDA-MB-231 breast): > 10 µM

CC(=O)Nc1ccc(/C=C/c2ccc(NC(=O)Nc3ccc(/C=C/c4ccc(NC(C)=O)cc4S(=O)(=O)O)c(S(=O)(=O)O)c3)cc2S(=O)(=O)O)c(S(=O)(=O)O)c1
TGI (P388 leukemia): > 100 µM | TGI (HOP-92 NSCLC): > 75.6 µM | TGI (XF 498 CNS): > 100 µM | TGI (HCT-116 colon): > 100 µM | TGI (SNB-78 CNS): > 100 µM | TGI (M19-MEL melanoma): > 100 µM | TGI (SN12K1 renal): > 100 µM | TGI (DLD-1 colon): > 100 µM | TGI (HCC-2998 colon): > 100 µM | TGI (HOP-18 NSCLC): > 100 µM | TGI (NCI-H522 lung): > 100 µM
